According to US20070049564A1 (Wyeth, priority 2005, published 2007):
Converted amounts (≈) assume the structure as drawn. Like-named read-outs stand apart in the source and are kept apart here.

Assays:
Assay in all cases: MIC, broth microdilution
S. aureus GC 1131 = conditions: Staphylococcus aureus
S. epidermidis GC 4935 = conditions: Staphylococcus epidermidis
E. faecium GC 2243 = conditions: Enterococcus faecium
E. coli GC 2233 = conditions: Escherichia coli
P. aeruginosa GC 2214 = conditions: Pseudomonas aeruginosa
S. aureus GC 6467 = conditions: Staphylococcus aureus
E. coli GC 6465 = conditions: Escherichia coli
E. coli GC 4560 = conditions: Escherichia coli
S. aureus GC 1079 = conditions: Staphylococcus aureus
E. coli GC 3226 = conditions: Escherichia coli
E. coli GC 2203 = conditions: Escherichia coli
E. faecalis GC 2265 = conditions: Enterococcus faecalis
E. faecalis GC 2267 = conditions: Enterococcus faecalis
E. coli GC 1073 = conditions: Escherichia coli
S. aureus GC 6335 = conditions: Staphylococcus aureus
E. coli GC 2272 = conditions: Escherichia coli
S. aureus GC 6469 = conditions: Staphylococcus aureus
E. coli GC 2270 = conditions: Escherichia coli
E. coli GC 2271 = conditions: Escherichia coli
c. albicans GC 3066 = tested on: c. albicans GC 3066

MIC (S. aureus GC 1131; GC1131, read-out: MINIMAL INHIBITORY CONCENTRATION MIC, pre-incubated in Mouse Serum): 1 µg/mL (≈ 1.26 µM)
MIC (S. aureus GC 1131; GC1131, read-out: MINIMAL INHIBITORY CONCENTRATION MIC, pre-incubated in Water): 4 µg/mL (≈ 5.05 µM)
MIC (S. epidermidis GC 4935; GC4935, read-out: MINIMAL INHIBITORY CONCENTRATION MIC, pre-incubated in Mouse Serum): 2 µg/mL (≈ 2.53 µM)
MIC (S. epidermidis GC 4935; GC4935, read-out: MINIMAL INHIBITORY CONCENTRATION MIC, pre-incubated in Water): 16 µg/mL (≈ 20.2 µM)
MIC (E. faecium GC 2243; GC2243, read-out: MINIMAL INHIBITORY CONCENTRATION MIC, pre-incubated in Mouse Serum): 1 µg/mL (≈ 1.26 µM)
MIC (E. faecium GC 2243; GC2243, read-out: MINIMAL INHIBITORY CONCENTRATION MIC, pre-incubated in Water): 8 µg/mL (≈ 10.1 µM)
MIC (E. coli GC 2233; GC2233, read-out: MINIMAL INHIBITORY CONCENTRATION MIC, pre-incubated in Mouse Serum): 2 µg/mL (≈ 2.53 µM)
MIC (E. coli GC 2233; GC2233, read-out: MINIMAL INHIBITORY CONCENTRATION MIC, pre-incubated in Water): > 64 µg/mL
MIC (P. aeruginosa GC 2214; GC2214, read-out: MINIMAL INHIBITORY CONCENTRATION MIC, pre-incubated in Mouse Serum): > 64 µg/mL
MIC (P. aeruginosa GC 2214; GC2214, read-out: MINIMAL INHIBITORY CONCENTRATION MIC, pre-incubated in Water): > 64 µg/mL
MIC (S. aureus GC 6467; GC6467, read-out: MINIMAL INHIBITORY CONCENTRATION MIC, pre-incubated in Mouse Serum): 4 µg/mL (≈ 5.05 µM)
MIC (S. aureus GC 6467; GC6467, read-out: MINIMAL INHIBITORY CONCENTRATION MIC, pre-incubated in Water): > 64 µg/mL
MIC (E. coli GC 6465; GC6465, read-out: MINIMAL INHIBITORY CONCENTRATION MIC, pre-incubated in Mouse Serum): 8 µg/mL (≈ 10.1 µM)
MIC (E. coli GC 6465; GC6465, read-out: MINIMAL INHIBITORY CONCENTRATION MIC, pre-incubated in Water): > 64 µg/mL
MIC (E. coli GC 4560; GC4560, read-out: MINIMAL INHIBITORY CONCENTRATION MIC, pre-incubated in Mouse Serum): 0.5 µg/mL (≈ 0.631 µM)
MIC (E. coli GC 4560; GC4560, read-out: MINIMAL INHIBITORY CONCENTRATION MIC, pre-incubated in Water): > 64 µg/mL
MIC (S. aureus GC 1079; GC1079, read-out: MINIMAL INHIBITORY CONCENTRATION MIC, pre-incubated in Mouse Serum): 2 µg/mL (≈ 2.53 µM)
MIC (S. aureus GC 1079; GC1079, read-out: MINIMAL INHIBITORY CONCENTRATION MIC, pre-incubated in Water): 32 µg/mL (≈ 40.4 µM)
MIC (E. coli GC 3226; GC3226, read-out: MINIMAL INHIBITORY CONCENTRATION MIC, pre-incubated in Mouse Serum): 8 µg/mL (≈ 10.1 µM)
MIC (E. coli GC 3226; GC3226, read-out: MINIMAL INHIBITORY CONCENTRATION MIC, pre-incubated in Water): > 64 µg/mL
MIC (E. coli GC 2203; GC2203, read-out: MINIMAL INHIBITORY CONCENTRATION MIC, pre-incubated in Mouse Serum): 1 µg/mL (≈ 1.26 µM)
MIC (E. coli GC 2203; GC2203, read-out: MINIMAL INHIBITORY CONCENTRATION MIC, pre-incubated in Water): > 64 µg/mL
MIC (E. faecalis GC 2265; GC2265, read-out: MINIMAL INHIBITORY CONCENTRATION MIC, pre-incubated in Mouse Serum): 2 µg/mL (≈ 2.53 µM)
MIC (E. faecalis GC 2265; GC2265, read-out: MINIMAL INHIBITORY CONCENTRATION MIC, pre-incubated in Water): 64 µg/mL (≈ 80.8 µM)
MIC (E. faecalis GC 2267; GC2267, read-out: MINIMAL INHIBITORY CONCENTRATION MIC, pre-incubated in Mouse Serum): 4 µg/mL (≈ 5.05 µM)
MIC (E. faecalis GC 2267; GC2267, read-out: MINIMAL INHIBITORY CONCENTRATION MIC, pre-incubated in Water): 64 µg/mL (≈ 80.8 µM)
MIC (E. coli GC 1073; GC1073, read-out: MINIMAL INHIBITORY CONCENTRATION MIC, pre-incubated in Mouse Serum): 2 µg/mL (≈ 2.53 µM)
MIC (E. coli GC 1073; GC1073, read-out: MINIMAL INHIBITORY CONCENTRATION MIC, pre-incubated in Water): > 64 µg/mL
MIC (S. aureus GC 6335; GC6335, read-out: MINIMAL INHIBITORY CONCENTRATION MIC, pre-incubated in Mouse Serum): 2 µg/mL (≈ 2.53 µM)
MIC (S. aureus GC 6335; GC6335, read-out: MINIMAL INHIBITORY CONCENTRATION MIC, pre-incubated in Water): 8 µg/mL (≈ 10.1 µM)
MIC (E. coli GC 2272; GC2272, read-out: MINIMAL INHIBITORY CONCENTRATION MIC, pre-incubated in Mouse Serum): 1 µg/mL (≈ 1.26 µM)
MIC (E. coli GC 2272; GC2272, read-out: MINIMAL INHIBITORY CONCENTRATION MIC, pre-incubated in Water): > 64 µg/mL
MIC (S. aureus GC 6469; GC6469, read-out: MINIMAL INHIBITORY CONCENTRATION MIC, pre-incubated in Mouse Serum): 4 µg/mL (≈ 5.05 µM)
MIC (S. aureus GC 6469; GC6469, read-out: MINIMAL INHIBITORY CONCENTRATION MIC, pre-incubated in Water): 64 µg/mL (≈ 80.8 µM)
MIC (E. coli GC 2270; GC2270, read-out: MINIMAL INHIBITORY CONCENTRATION MIC, pre-incubated in Mouse Serum): 1 µg/mL (≈ 1.26 µM)
MIC (E. coli GC 2270; GC2270, read-out: MINIMAL INHIBITORY CONCENTRATION MIC, pre-incubated in Water): > 64 µg/mL
MIC (E. coli GC 2271; GC2271, read-out: MINIMAL INHIBITORY CONCENTRATION MIC, pre-incubated in Mouse Serum): 1 µg/mL (≈ 1.26 µM)
MIC (E. coli GC 2271; GC2271, read-out: MINIMAL INHIBITORY CONCENTRATION MIC, pre-incubated in Water): > 64 µg/mL
MIC (c. albicans GC 3066; Candida albicans, GC3066, read-out: MINIMAL INHIBITORY CONCENTRATION MIC): > 64 µg/mL
MINIMAL INHIBITORY CONCENTRATION MIC (c. albicans GC 3066; pre-incubated in Water): >64 UG/ML
Compound: CCCCN(CC(=O)Nc1cc(N(C)C)c2c(c1O)C(=O)C1=C(O)[C@]3(O)C(=O)C(C(N)=O)=C(O)[C@@H](N(C)C)[C@@H]3C[C@@H]1C2)C(=O)OCOC(=O)c1cc(C)cc(C)c1 [Example 22, ({[(2-{[(5aR,6aS,7S,10aS)-9-(aminocarbonyl)-4,7-bis(dimethylamino)-1,8,10a,11-tetrahydroxy-10,12-dioxo-5,5a,6,6a,7,10,10a,12-octahydrotetracen-2-yl]amino}-2-oxoethyl)(butyl)amino]carbonyl}oxy)methyl 3,5-dimethylbenzoate]
